ChEMBL document CHEMBL3885861, “Open TG-GATES”

Organism: Rattus norvegicus
Test: Open TG-GATES - Regimen: Single
Assay type: toxicity, organism-based, Sprague-Dawley
Design: regimen Single, gender Male, age 6 weeks
Conditions: in vivo, po, 1000 mg/kg, route gavage, dose level High; for APTT / Bas / Eos / Fbg / Hb / Ht / Lym / MCH / MCHC / MCV / Mono / Neu / PT / Plat / RBC / Ret / WBC: tissue Blood; for KIDNEY_L / KIDNEY_R / KIDNEY_TOTAL: tissue Kidney; for LIVER: tissue Liver; for A/G / ALP / ALT / AST / BUN / CRE / Ca / Cl / DBIL / GLC / IP / K / LDH / Na / PL / RALB / TBIL / TC / TG / TP / gamma-GTP: tissue Plasma

C[C@H]1O[C@H](O[C@H]2[C@H](O)[C@@H](O)[C@@H](O[C@H]3[C@H](O)[C@@H](O)C(O)O[C@@H]3CO)O[C@@H]2CO)[C@H](O)[C@@H](O)[C@@H]1N[C@H]1C=C(CO)[C@@H](O)[C@H](O)[C@H]1O (some centres not stated) [ACARBOSE]
TERMINAL_BW (3 h): 197.2 g | APTT (3 h): 17.5 s | Bas (3 h): 0% | Eos (3 h): 1% | Fbg (3 h): 289.2 mg/dL | Hb (3 h): 13.7 g/dL | Ht (3 h): 42% | Lym (3 h): 82.4% | MCH (3 h): 20.7 pg | MCHC (3 h): 32.7% | MCV (3 h): 63.3 fL | Mono (3 h): 2.2% | Neu (3 h): 13.8% | PT (3 h): 13.2 s | Plat (3 h): 116 x10_4/uL | RBC (3 h): 664 x10_4/ul | Ret (3 h): 8% | WBC (3 h): 88.8 x10_2/uL | KIDNEY_L (3 h): 0.9 g | KIDNEY_R (3 h): 0.9 g | KIDNEY_TOTAL (3 h): 1.7 g | LIVER (3 h): 8.2 g | A/G (3 h): 0.9 | ALP (3 h): 1484.6 IU/L | ALT (3 h): 38 IU/L | AST (3 h): 73.6 IU/L | BUN (3 h): 10.6 mg/dL | CRE (3 h): 0.2 mg/dL | Ca (3 h): 11 mg/dL | Cl (3 h): 104.4 meq/L | DBIL (3 h): 0.004 mg/dL | GLC (3 h): 166.2 mg/dL | IP (3 h): 10 mg/dL | K (3 h): 4 meq/L | LDH (3 h): 62.6 IU/L | Na (3 h): 141.4 meq/L | PL (3 h): 131.4 mg/dL | RALB (3 h): 2.5 g/dL | TBIL (3 h): 0.054 mg/dL | TC (3 h): 71.4 mg/dL | TG (3 h): 45.2 mg/dL | TP (3 h): 5.2 g/dL | gamma-GTP (3 h): 1 IU/L | TERMINAL_BW (6 h): 198.5 g | APTT (6 h): 17.1 s | Bas (6 h): 0% | Eos (6 h): 1% | Fbg (6 h): 266.4 mg/dL | Hb (6 h): 13.3 g/dL | Ht (6 h): 41.1% | Lym (6 h): 74.8% | MCH (6 h): 20.9 pg | MCHC (6 h): 32.5% | MCV (6 h): 64.2 fL | Mono (6 h): 3% | Neu (6 h): 20.2% | PT (6 h): 13.5 s | Plat (6 h): 118.8 x10_4/uL | RBC (6 h): 640.4 x10_4/ul | Ret (6 h): 8.2% | WBC (6 h): 81.7 x10_2/uL | KIDNEY_L (6 h): 0.9 g | KIDNEY_R (6 h): 0.9 g | KIDNEY_TOTAL (6 h): 1.8 g | LIVER (6 h): 7.8 g | A/G (6 h): 0.9 | ALP (6 h): 1359.2 IU/L | ALT (6 h): 34.4 IU/L | AST (6 h): 73.8 IU/L | BUN (6 h): 9.4 mg/dL | CRE (6 h): 0.2 mg/dL | Ca (6 h): 10.6 mg/dL | Cl (6 h): 104 meq/L | DBIL (6 h): 0.004 mg/dL | GLC (6 h): 167.2 mg/dL | IP (6 h): 10 mg/dL | K (6 h): 4 meq/L | LDH (6 h): 61.6 IU/L | Na (6 h): 140.4 meq/L | PL (6 h): 128.8 mg/dL | RALB (6 h): 2.4 g/dL | TBIL (6 h): 0.066 mg/dL | TC (6 h): 72.2 mg/dL | TG (6 h): 35.4 mg/dL | TP (6 h): 5 g/dL | gamma-GTP (6 h): 1 IU/L | TERMINAL_BW (9 h): 195.6 g | APTT (9 h): 17 s | Bas (9 h): 0.4% | Eos (9 h): 0.8% | Fbg (9 h): 306 mg/dL | Hb (9 h): 13.6 g/dL | Ht (9 h): 41.9% | Lym (9 h): 78.2% | MCH (9 h): 20.8 pg | MCHC (9 h): 32.3% | MCV (9 h): 64.2 fL | Mono (9 h): 2.2% | Neu (9 h): 18% | PT (9 h): 13.4 s | Plat (9 h): 117.8 x10_4/uL | RBC (9 h): 654.4 x10_4/ul | Ret (9 h): 7.9% | WBC (9 h): 87.1 x10_2/uL | KIDNEY_L (9 h): 0.9 g | KIDNEY_R (9 h): 0.9 g | KIDNEY_TOTAL (9 h): 1.8 g | LIVER (9 h): 7.4 g | A/G (9 h): 0.9 | ALP (9 h): 1457.4 IU/L | ALT (9 h): 36 IU/L | AST (9 h): 75.8 IU/L | BUN (9 h): 8.8 mg/dL | CRE (9 h): 0.2 mg/dL | Ca (9 h): 10.6 mg/dL | Cl (9 h): 105.2 meq/L | DBIL (9 h): 0.002 mg/dL | GLC (9 h): 168.8 mg/dL | IP (9 h): 10.1 mg/dL | K (9 h): 3.8 meq/L | LDH (9 h): 67.2 IU/L | Na (9 h): 142 meq/L | PL (9 h): 119 mg/dL | RALB (9 h): 2.5 g/dL | TBIL (9 h): 0.064 mg/dL | TC (9 h): 70.8 mg/dL | TG (9 h): 24 mg/dL | TP (9 h): 5.3 g/dL | gamma-GTP (9 h): 1.2 IU/L | TERMINAL_BW (24 h): 212.7 g | APTT (24 h): 18.7 s | Bas (24 h): 0% | Eos (24 h): 1.2% | Fbg (24 h): 291.4 mg/dL | Hb (24 h): 13.4 g/dL | Ht (24 h): 40.9% | Lym (24 h): 72.2% | MCH (24 h): 20.9 pg | MCHC (24 h): 32.6% | MCV (24 h): 64.1 fL | Mono (24 h): 2.8% | Neu (24 h): 23% | PT (24 h): 13 s | Plat (24 h): 118.2 x10_4/uL | RBC (24 h): 638.4 x10_4/ul | Ret (24 h): 7.9% | WBC (24 h): 103.5 x10_2/uL | KIDNEY_L (24 h): 0.9 g | KIDNEY_R (24 h): 0.9 g | KIDNEY_TOTAL (24 h): 1.8 g | LIVER (24 h): 9.8 g | A/G (24 h): 0.9 | ALP (24 h): 1691 IU/L | ALT (24 h): 44.4 IU/L | AST (24 h): 75.4 IU/L | BUN (24 h): 14.6 mg/dL | CRE (24 h): 0.2 mg/dL | Ca (24 h): 10.7 mg/dL | Cl (24 h): 105.6 meq/L | DBIL (24 h): 0.01 mg/dL | GLC (24 h): 173.4 mg/dL | IP (24 h): 7.9 mg/dL | K (24 h): 4 meq/L | LDH (24 h): 66.2 IU/L | Na (24 h): 142.8 meq/L | PL (24 h): 132.6 mg/dL | RALB (24 h): 2.6 g/dL | TBIL (24 h): 0.06 mg/dL | TC (24 h): 72.2 mg/dL | TG (24 h): 70.8 mg/dL | TP (24 h): 5.5 g/dL | gamma-GTP (24 h): 1 IU/L
